From patent US9181234B2, “Antibacterial compounds” (priority 2010, dated 2015)
In brackets after ≈: the same amount, converted by molar mass.

Assays:
physchem = details: kinetic from dmso stock
Procedure, shortened: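 DMSO doubling dilutions were diluted twenty-fold into 100 mM citrate (pH 4), PBS (pH 7.4) or carbonate-bicarbonate (pH 9). After 24 h equilibration at room temperature, absorbance was read at 620 nm. The reported value is the highest concentration without measurable precipitate.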

[1] = tested on: Staphylococcus aureus (Isolate ID ATCC 29213); experiment: Antibacterial activity, MIC, S. aureus; format: cell-based; details: Staphylococcus aureus, ATCC29213, Gram positive strain; broth microdilution or agar dilution
Procedure, shortened: (§1)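 Per CLSI standard M7-A7, minimum inhibitory concentrations were measured by agar dilution or by broth microdilution.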

[2] = tested on: Enterococcus faecalis (Isolate ID ATCC 29212); experiment: Antibacterial activity, MIC, E. faecalis; format: cell-based; details: Enterococcus faecalis, ATCC29212; Gram positive strain; broth microdilution or agar dilution
Procedure, shortened: as §1

[3] = tested on: Streptococcus pyogenes (Isolate ID ATCC 51339); experiment: Antibacterial activity, MIC, S. pyogenes; format: cell-based; details: Streptococcus pyogenes, ATCC51339, Gram positive strain; broth microdilution or agar dilution
Procedure, shortened: as §1

[4] = tested on: Haemophilus influenzae (Isolate ID ATCC 49247); experiment: Antibacterial activity, MIC, H. influenzae; format: cell-based; details: Haemophilus influenzae, ATCC49247; Gram negative strain; broth microdilution or agar dilution
Procedure, shortened: as §1

[5] = pH 7.4, aqueous buffer, Max Solubility
[6] = pH 7.4, aqueous buffer, Solubility (pH 7.4)
[7] = pH 7.4, aqueous buffer, Solubility Range
[8] = pH 7.4, aqueous buffer, Solubility Range (maximum solubility)
[9] = pH 9, aqueous buffer, Max Solubility
[10] = pH 9, aqueous buffer, Solubility Range (maximum solubility)

SMILES | solubility at 24 h (physchem; [5]) [mg/mL] | solubility at 24 h (physchem; [6]) [mg/mL] | solubility at 24 h (physchem; [7]) [mg/mL] | solubility at 24 h (physchem; [8]) [mg/mL] | MIC [1] [mg/L] | MIC [2] [mg/L] | MIC [3] [mg/L] | MIC [4] [mg/L] | solubility at 24 h (physchem; pH 4, aqueous buffer, Max Solubility) [mg/mL] | solubility at 24 h (physchem; pH 4, aqueous buffer, Solubility Range (maximum solubility)) [mg/mL] | solubility at 24 h (physchem; [9]) [mg/mL] | solubility at 24 h (physchem; [10]) [mg/mL]
CCNC(=O)Nc1nc2cc(-c3cnc(N4CCC(C)(C(=O)O)CC4)nc3)cc(-c3ncc(C)cc3C#N)c2s1 [Compound 65] | 0.0125 (≈ 22.5 µM) | 0.0125 (≈ 22.5 µM) | 0.0125 to 0.4 (≈ 22.5 to 719 µM) | 0.0125 to 0.4 (≈ 22.5 to 719 µM) | ≤ 0.25 | ≤ 0.25 | ≤ 0.25 | 1 to 16 (≈ 1.8 to 28.7 µM) | – | – | – | –
CCNC(=O)Nc1nc2cc(-c3cnc(N4CCC(C)(C(=O)O)CC4)nc3)cc(-c3cnc(C)cn3)c2s1 [Compound 66] | ≥ 0.8 | ≥ 0.8 | > 0.8 | > 0.8 | ≤ 0.25 | ≤ 0.25 | ≤ 0.25 | 0.25 to 1 (≈ 0.469 to 1.88 µM) | – | – | – | –
CCNC(=O)Nc1nc2cc(-c3cnc(N4CCC(C)(C(=O)O)CC4)nc3)cc(-c3ccncn3)c2s1 [Compound 67] | ≥ 0.8 | ≥ 0.8 | > 0.8 | > 0.8 | ≤ 0.25 | ≤ 0.25 | ≤ 0.25 | 1 to 16 (≈ 1.93 to 30.9 µM) | – | – | – | –
CCNC(=O)Nc1nc2cc(-c3cnc(N4CCC(C)(C(=O)O)CC4)nc3)cc(-c3cc(OCC)ccn3)c2s1 [Compound 68] | ≥ 0.8 | ≥ 0.8 | > 0.8 | > 0.8 | ≤ 0.25 | ≤ 0.25 | ≤ 0.25 | 0.25 to 1 (≈ 0.445 to 1.78 µM) | – | – | – | –
CCNC(=O)Nc1nc2cc(-c3cnc(N4CCC(C)(C(=O)O)CC4)nc3)cc(-c3ncc(C#N)cc3C)c2s1 [Compound 69] | ≥ 0.8 | ≥ 0.8 | > 0.8 | > 0.8 | 1 to 16 (≈ 1.8 to 28.7 µM) | ≤ 0.25 | 0.25 to 1 (≈ 0.449 to 1.8 µM) | 1 to 16 (≈ 1.8 to 28.7 µM) | – | – | – | –
CCNC(=O)Nc1nc2cc(-c3cnc(N4CCC(C)(C(=O)O)CC4)nc3)cc(-c3nccc4occc34)c2s1 [Compound 70] | ≥ 0.8 | ≥ 0.8 | > 0.8 | > 0.8 | ≤ 0.25 | ≤ 0.25 | ≤ 0.25 | 1 to 16 (≈ 1.79 to 28.7 µM) | – | – | – | –
CCNC(=O)Nc1nc2cc(-c3cnc(N4CCC(C)(C(=O)O)CC4)nc3)cc(-c3nccc(N(C)C)c3C#N)c2s1 [Compound 71] | – | 0.00625 (≈ 10.7 µM) | < 0.0125 | – | 0.25 to 1 (≈ 0.427 to 1.71 µM) | ≤ 0.25 | ≤ 0.25 | 0.25 to 1 (≈ 0.427 to 1.71 µM) | 0.05 (≈ 85.4 µM) | 0.0125 to 0.4 (≈ 21.3 to 683 µM) | – | –
CCNC(=O)Nc1nc2cc(-c3cnc(N4CCC(C)(C(=O)O)CC4)nc3)cc(/C=N/OC)c2s1 [Compound 72, (E)-1-(5-(2-(3-ethylureido)-7-((methoxyimino)methyl)benzo[d]thiazol-5-yl)pyrimidin-2-yl)-4-methylpiperidine-4-carboxylic acid] | ≥ 0.8 | ≥ 0.8 | > 0.8 | > 0.8 | ≤ 0.25 | ≤ 0.25 | ≤ 0.25 | 0.25 to 1 (≈ 0.502 to 2.01 µM) | – | – | – | –
CCNC(=O)Nc1nc2cc(-c3cnc(N4CCC(C)(C(=O)O)CC4)nc3)cc(-c3cncc(OC(C)(C)C)n3)c2s1 [Compound 73] | – | 0.4 (≈ 677 µM) | 0.4 to 0.8 (≈ 677 to 1350 µM) | – | 0.25 to 1 (≈ 0.423 to 1.69 µM) | ≤ 0.25 | 1 to 16 (≈ 1.69 to 27.1 µM) | > 16 | – | – | ≥ 0.8 | > 0.8
CCNC(=O)Nc1nc2cc(-c3cnc(N4CCC(C)(C(=O)O)CC4)nc3)cc(C3CCN(C(C)=O)CC3)c2s1 [Compound 74, 1-[5-[7-(1-acetyl-4-piperidyl)-2-(ethylcarbamoylamino)-1,3-benzothiazol-5-yl]pyrimidin-2-yl]-4-methyl-piperidine-4-carboxylic acid] | ≥ 0.8 | ≥ 0.8 | > 0.8 | > 0.8 | > 16 | 1 to 16 (≈ 1.77 to 28.3 µM) | 1 to 16 (≈ 1.77 to 28.3 µM) | > 16 | – | – | – | –
CCNC(=O)Nc1nc2cc(-c3cnc(N4CCC(C)(C(=O)O)CC4)nc3)cc(-c3cnc(N(C)C)s3)c2s1 [Compound 75] | – | 0.025 (≈ 44.1 µM) | 0.0125 to 0.4 (≈ 22.1 to 706 µM) | – | 0.25 to 1 (≈ 0.441 to 1.76 µM) | ≤ 0.25 | 0.25 to 1 (≈ 0.441 to 1.76 µM) | 1 to 16 (≈ 1.76 to 28.2 µM) | – | – | 0.1 (≈ 176 µM) | 0.0125 to 0.4 (≈ 22.1 to 706 µM)
CCNC(=O)Nc1nc2cc(-c3cnc(N4CCC(C)(C(=O)O)CC4)nc3)cc(-c3cnc(N4CCOCC4)s3)c2s1 [Compound 76] | ≥ 0.8 | ≥ 0.8 | > 0.8 | > 0.8 | 1 to 16 (≈ 1.64 to 26.3 µM) | ≤ 0.25 | 0.25 to 1 (≈ 0.411 to 1.64 µM) | > 16 | – | – | – | –
CCNC(=O)Nc1nc2cc(-c3cnc(N4CCC(C)(C(=O)O)CC4)nc3)cc(-c3cnc(CC)s3)c2s1 [Compound 77] | – | 0.2 (≈ 363 µM) | 0.0125 to 0.4 (≈ 22.7 to 725 µM) | – | ≤ 0.25 | ≤ 0.25 | ≤ 0.25 | 1 to 16 (≈ 1.81 to 29 µM) | – | – | 0.4 (≈ 725 µM) | 0.4 to 0.8 (≈ 725 to 1450 µM)
